Paper PMC8391922, “The Combined Effect of Branching and Elongation on the Bioactivity Profile of Phytocannabinoids. Part I: Thermo-TRPs” (Biomedicines, 2021)
Values joined by “and” are separate entries in the source; they are usually repeats but may differ in a detail not shown here. Equal values may be shown once. Read-outs that look alike come from different tables or passages of the source.

Legend:
[1] = target: T1, rat TRPV3 (Rattus norvegicus, UniProt Q4QYD9); design: method as in PMID 21175579, PMID 21726418
T1 construct: expressed in transfected cells; host or cells: HEK-293
T1 sequence (Q4QYD9 1-791): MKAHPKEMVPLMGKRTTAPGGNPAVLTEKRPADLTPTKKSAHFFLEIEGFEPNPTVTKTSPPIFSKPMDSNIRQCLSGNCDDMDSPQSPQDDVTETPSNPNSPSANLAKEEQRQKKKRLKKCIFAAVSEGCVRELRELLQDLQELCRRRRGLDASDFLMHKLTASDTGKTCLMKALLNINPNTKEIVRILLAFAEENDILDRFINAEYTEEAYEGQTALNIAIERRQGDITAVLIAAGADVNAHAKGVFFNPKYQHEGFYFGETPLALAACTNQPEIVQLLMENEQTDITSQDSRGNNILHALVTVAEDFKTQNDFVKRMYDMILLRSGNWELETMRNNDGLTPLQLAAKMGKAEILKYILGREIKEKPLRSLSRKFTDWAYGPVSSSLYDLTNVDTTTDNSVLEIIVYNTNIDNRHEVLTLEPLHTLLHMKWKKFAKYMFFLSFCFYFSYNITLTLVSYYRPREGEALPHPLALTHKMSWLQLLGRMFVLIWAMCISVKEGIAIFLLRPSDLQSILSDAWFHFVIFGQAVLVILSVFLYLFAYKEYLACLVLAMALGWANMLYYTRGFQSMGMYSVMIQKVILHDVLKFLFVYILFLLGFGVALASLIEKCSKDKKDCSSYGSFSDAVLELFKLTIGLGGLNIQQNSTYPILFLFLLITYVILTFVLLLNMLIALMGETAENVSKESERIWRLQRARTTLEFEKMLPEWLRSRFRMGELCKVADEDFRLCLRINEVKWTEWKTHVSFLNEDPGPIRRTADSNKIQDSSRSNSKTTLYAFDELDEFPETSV

[2] = target: T2, rat TRPA1 (Rattus norvegicus, UniProt Q6RI86); design: method as in PMID 21175579; settings: cited from earlier work; for TRPA1 Efficacy (%ITC 100 μM): percentage of the effect of 100 μM allylisothiocyanate; for IC50: against agonist AITC 100 μM
T2 construct: expressed in transfected cells; host or cells: HEK-293
T2 sequence (Q6RI86 whole entry): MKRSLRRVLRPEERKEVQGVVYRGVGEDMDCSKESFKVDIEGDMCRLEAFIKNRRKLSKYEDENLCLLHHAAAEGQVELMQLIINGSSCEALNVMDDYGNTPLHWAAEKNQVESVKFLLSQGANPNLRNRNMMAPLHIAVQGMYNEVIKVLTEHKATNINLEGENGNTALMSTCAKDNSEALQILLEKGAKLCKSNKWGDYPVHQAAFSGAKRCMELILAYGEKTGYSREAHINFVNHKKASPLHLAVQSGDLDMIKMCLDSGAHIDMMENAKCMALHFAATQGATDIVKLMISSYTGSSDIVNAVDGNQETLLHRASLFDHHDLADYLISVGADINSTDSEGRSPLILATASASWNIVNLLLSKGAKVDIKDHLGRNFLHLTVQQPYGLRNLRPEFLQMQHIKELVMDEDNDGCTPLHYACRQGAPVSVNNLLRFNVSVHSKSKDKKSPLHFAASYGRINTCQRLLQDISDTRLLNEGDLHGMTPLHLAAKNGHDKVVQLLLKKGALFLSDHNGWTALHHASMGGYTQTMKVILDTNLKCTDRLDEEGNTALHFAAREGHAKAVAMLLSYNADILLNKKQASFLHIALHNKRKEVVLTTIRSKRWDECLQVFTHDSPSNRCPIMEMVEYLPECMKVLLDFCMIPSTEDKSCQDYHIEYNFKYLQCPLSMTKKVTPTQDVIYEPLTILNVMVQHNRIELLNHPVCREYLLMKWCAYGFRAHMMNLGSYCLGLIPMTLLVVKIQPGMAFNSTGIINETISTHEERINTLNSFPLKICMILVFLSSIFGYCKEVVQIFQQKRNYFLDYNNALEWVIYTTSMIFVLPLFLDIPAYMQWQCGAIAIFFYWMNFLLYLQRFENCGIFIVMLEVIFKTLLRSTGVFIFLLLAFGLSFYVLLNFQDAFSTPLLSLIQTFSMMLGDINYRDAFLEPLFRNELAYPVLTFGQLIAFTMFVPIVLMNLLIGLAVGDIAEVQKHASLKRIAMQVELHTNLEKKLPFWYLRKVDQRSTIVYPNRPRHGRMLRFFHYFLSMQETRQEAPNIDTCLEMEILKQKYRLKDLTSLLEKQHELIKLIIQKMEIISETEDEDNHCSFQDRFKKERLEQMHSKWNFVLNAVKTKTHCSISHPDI

[3] = target: T3, human TRPV1 (Homo sapiens, UniProt Q8NER1); design: method as in PMID 21175579
T3 construct: expressed in transfected cells; host or cells: HEK-293
T3 sequence (Q8NER1 whole entry): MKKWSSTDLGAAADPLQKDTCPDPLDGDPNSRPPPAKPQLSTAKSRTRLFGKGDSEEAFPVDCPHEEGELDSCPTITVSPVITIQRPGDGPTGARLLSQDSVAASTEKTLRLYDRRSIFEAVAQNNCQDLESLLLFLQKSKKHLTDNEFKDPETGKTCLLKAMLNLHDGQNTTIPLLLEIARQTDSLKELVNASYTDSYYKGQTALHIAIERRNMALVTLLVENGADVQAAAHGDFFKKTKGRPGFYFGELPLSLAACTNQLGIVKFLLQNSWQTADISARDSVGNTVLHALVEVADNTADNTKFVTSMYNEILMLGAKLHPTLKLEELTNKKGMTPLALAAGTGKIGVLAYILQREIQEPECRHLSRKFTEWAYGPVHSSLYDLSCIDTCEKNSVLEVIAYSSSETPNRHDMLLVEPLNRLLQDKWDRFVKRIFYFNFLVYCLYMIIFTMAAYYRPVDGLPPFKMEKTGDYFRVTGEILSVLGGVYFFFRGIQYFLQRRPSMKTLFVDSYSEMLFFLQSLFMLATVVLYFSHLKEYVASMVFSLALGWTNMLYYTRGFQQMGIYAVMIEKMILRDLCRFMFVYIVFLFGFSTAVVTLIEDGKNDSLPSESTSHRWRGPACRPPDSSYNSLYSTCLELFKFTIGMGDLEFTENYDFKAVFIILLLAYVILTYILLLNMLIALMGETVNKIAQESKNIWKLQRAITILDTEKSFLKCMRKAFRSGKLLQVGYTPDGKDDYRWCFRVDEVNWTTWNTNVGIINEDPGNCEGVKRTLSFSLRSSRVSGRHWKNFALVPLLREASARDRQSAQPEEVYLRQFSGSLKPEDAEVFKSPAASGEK

[4] = target: T4, rat TRPV4 (Rattus norvegicus, UniProt Q9ERZ8); design: method as in PMID 21175579, PMID 21726418
T4 construct: expressed in transfected cells; host or cells: HEK-293
T4 sequence (Q9ERZ8 whole entry): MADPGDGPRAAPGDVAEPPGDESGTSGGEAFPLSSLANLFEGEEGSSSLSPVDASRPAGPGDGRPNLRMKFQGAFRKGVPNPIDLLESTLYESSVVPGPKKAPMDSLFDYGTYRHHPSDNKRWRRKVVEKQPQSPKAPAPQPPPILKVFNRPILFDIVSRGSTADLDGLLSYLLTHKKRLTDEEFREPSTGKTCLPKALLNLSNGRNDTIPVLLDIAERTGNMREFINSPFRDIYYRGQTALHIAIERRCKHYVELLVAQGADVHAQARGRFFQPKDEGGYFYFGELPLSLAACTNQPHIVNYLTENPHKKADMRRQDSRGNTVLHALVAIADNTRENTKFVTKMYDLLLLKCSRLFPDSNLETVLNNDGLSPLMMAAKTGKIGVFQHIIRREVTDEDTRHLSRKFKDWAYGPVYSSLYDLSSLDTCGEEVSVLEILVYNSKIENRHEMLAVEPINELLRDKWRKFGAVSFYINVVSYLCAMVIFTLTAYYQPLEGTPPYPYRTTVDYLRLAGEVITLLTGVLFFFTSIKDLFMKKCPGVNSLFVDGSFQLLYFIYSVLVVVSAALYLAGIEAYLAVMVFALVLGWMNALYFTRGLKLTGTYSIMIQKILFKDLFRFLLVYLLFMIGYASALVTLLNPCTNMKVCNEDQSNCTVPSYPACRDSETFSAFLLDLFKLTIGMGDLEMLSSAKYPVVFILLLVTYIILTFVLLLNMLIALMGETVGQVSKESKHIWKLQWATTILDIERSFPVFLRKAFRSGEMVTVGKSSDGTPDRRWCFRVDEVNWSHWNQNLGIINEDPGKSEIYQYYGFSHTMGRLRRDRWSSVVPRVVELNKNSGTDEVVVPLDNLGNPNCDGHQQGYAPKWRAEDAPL

[5] = target: T5, rat TRPV2 (Rattus norvegicus, UniProt Q9WUD2); design: method as in PMID 21175579, PMID 21726418; settings: cited from earlier work; for TRPV2 Efficacy (% IM 4 μM): percentage of the response to ionomycin 4 μM
T5 construct: expressed in transfected cells; host or cells: HEK-293
T5 sequence (Q9WUD2 1-761): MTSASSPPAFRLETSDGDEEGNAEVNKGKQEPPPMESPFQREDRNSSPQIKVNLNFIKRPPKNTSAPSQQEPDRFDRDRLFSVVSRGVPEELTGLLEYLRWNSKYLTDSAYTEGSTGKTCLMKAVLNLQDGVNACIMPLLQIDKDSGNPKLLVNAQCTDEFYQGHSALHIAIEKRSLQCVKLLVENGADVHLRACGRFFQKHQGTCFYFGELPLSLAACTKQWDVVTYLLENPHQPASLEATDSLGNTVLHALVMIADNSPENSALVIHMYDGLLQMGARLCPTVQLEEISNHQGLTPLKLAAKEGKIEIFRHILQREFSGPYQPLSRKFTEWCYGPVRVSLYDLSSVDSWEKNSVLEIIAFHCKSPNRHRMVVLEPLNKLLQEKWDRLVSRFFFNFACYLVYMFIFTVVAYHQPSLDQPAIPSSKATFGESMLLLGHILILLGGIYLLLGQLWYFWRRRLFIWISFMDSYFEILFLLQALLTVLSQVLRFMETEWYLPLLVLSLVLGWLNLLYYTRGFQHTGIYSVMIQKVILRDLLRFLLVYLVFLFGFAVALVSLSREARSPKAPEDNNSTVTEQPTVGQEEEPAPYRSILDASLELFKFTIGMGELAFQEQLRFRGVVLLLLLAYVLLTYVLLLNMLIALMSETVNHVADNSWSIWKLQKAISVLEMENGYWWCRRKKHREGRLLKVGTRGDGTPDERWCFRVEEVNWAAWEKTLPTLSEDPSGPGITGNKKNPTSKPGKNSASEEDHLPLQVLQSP

[6] = target: T6, rat TRPM8 (Rattus norvegicus, UniProt Q8R455); design: method as in PMID 21175579
T6 construct: expressed in transfected cells; host or cells: HEK-293
T6 sequence (Q8R455 whole entry): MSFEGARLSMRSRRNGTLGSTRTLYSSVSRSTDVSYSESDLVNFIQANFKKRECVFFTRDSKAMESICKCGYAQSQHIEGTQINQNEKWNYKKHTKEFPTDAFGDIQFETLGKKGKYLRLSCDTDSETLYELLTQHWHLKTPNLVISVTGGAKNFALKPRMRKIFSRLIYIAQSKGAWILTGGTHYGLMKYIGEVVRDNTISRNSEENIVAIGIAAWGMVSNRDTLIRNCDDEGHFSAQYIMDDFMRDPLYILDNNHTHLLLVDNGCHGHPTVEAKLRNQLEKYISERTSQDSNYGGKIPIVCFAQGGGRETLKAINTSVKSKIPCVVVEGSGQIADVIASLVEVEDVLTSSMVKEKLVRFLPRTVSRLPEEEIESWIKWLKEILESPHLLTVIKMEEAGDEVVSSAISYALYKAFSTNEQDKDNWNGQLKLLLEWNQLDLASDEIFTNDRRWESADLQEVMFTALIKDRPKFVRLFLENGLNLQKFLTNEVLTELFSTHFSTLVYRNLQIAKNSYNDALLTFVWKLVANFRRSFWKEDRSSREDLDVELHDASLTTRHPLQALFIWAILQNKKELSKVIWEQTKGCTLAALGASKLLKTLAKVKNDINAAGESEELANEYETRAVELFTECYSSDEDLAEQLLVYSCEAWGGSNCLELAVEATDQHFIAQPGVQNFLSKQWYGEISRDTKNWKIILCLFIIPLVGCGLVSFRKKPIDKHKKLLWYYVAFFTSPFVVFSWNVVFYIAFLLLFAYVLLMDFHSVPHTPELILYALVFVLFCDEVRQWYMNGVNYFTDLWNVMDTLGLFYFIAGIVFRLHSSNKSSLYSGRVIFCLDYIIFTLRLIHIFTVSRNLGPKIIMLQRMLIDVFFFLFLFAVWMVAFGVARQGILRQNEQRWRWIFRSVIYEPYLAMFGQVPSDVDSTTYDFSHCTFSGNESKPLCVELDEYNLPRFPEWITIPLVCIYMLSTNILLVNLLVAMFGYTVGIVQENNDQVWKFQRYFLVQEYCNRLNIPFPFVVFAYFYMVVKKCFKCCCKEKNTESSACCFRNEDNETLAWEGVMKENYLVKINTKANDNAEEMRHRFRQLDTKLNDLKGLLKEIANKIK

[7] = target: T2, rat TRPA1; experiment: TRPA1-mediated elevation of intracellular Ca2+ (Fluo-4) in transfected HEK-293 cells; type: cell-based; settings: for TRPA1 Efficacy (%ITC 100 μM): percentage of the effect of 100 μM allylisothiocyanate on [Ca2+]i, HEK-293
Experimental: (§1) Assays of rat TRPA1, TRPV2, TRPV3, TRPV4, and TRPM8 or human TRPV1 mediated elevation of intracellular Ca ^2+ in transfected HEK-293 cells were performed with a continuous monitoring of [Ca ^2+]i during the experiments. […] Cell fluorescence before and after the addition of various concentrations of test compounds was measured, normalizing the effects against the response to ionomycin (IM, 4 μM). The values of the effect on [Ca^2+]i in HEK-293 cells not transfected were used as baseline and subtracted from the values obtained from transfected cells. For TRPA1, agonist efficacy was expressed as a percentage of the effect on [Ca ^2+]i observed with 100 μM allylisothiocyanate. […] In the TRPV3 assay, TRPV3-expressing HEK293 cells were first sensitized with the structurally unrelated agonist 2-aminoethoxydiphenyl borate (100 μM). Antagonist/desensitizing behavior is evaluated against the agonist of the TRP analyzed by adding the compounds directly in the quartz cuvette 5 min before stimulation of cells with the agonist. […] Dose-response curve fitting (sigmoidal dose-response variable slope) and parameter estimation were performed with Graph-Pad Prism8 (GraphPad Software Inc., San Diego, CA, USA). All determinations were performed at least in triplicate.

[8] = target: T6, rat TRPM8; experiment: TRPM8 antagonism of icilin-induced intracellular Ca2+ elevation (Fluo-4) in transfected HEK-293 cells; type: cell-based; settings: IC50 TRPM8, antagonist; compound added 5 min before agonist icilin 0.25 μM
Experimental: as §1

[9] = target: T4, rat TRPV4; experiment: TRPV4-mediated elevation of intracellular Ca2+ (Fluo-4) in transfected HEK-293 cells; type: cell-based
Experimental: as §1

[10] = target: T3, human TRPV1; experiment: TRPV1-mediated elevation of intracellular Ca2+ (Fluo-4) in transfected HEK-293 cells; type: cell-based; settings: for TRPV1 Efficacy (% IM 4 μM): percentage of the response to ionomycin 4 μM, HEK-293
Experimental: as §1

[11] = target: T5, rat TRPV2; experiment: TRPV2-mediated elevation of intracellular Ca2+ (Fluo-4) in transfected HEK-293 cells; type: cell-based
Experimental: as §1

[12] = percentage of the response to ionomycin 4 μM; cited from earlier work
[13] = read-out: TRPV3 Potency EC50; half-maximal increase in [Ca2+]i; cited from earlier work
[14] = against agonist capsaicin 0.1 μM; cited from earlier work
[15] = read-out: IC50 TRPV1; against agonist capsaicin 0.1 μM; cited from earlier work
[16] = read-out: TRPV4 Potency EC50; half-maximal increase in [Ca2+]i; cited from earlier work
[17] = percentage of the response to ionomycin 4 μM, HEK-293

## C=C(C)[C@@H]1CCC(C)=C[C@H]1c1c(O)cc(CCCCC)cc1O [1a, cannabidiol]
[1]; [12]
  TRPV3 Efficacy (% IM 4 μM): 50.1 ± 4.8%
[1]; read-out: IC50 TRPV3; against agonist carvacrol 1 mM; cited from earlier work
  IC50: 0.9 µM
[1]; [13]
  EC50: 3.7 µM
[2]
  TRPA1 Efficacy (%ITC 100 μM): 115.9 ± 4.6%
[2]; read-out: IC50 TRPA1
  IC50: 0.16 µM
[3]; [14]
  IC50 TRPV1: sub/low micromolar range
[3]; [12]
  TRPV1 Efficacy (% IM 4 μM): 44.7 ± 0.02%
[3]; [15]
  IC50: 0.6 µM
[4]; [12]
  TRPV4 Efficacy (% IM 4 μM): 16.7 ± 1.0%
[4]; read-out: IC50 TRPV4; against agonist 4αPDD 1 μM; cited from earlier work
  IC50: 1.1 µM
[4]; [16]
  EC50: 0.8 µM
[5]
  TRPV2 Efficacy (% IM 4 μM): 40.5 ± 1.6%
[5]; read-out: IC50 TRPV2, against agonist LPC 3 μM
  IC50: 4.5 µM

## CCCCCc1cc(O)c2c(c1)OC(C)(C)[C@@H]1CC=C(C)C[C@@H]21 [6a, Δ^8-tetrahydrocannabinol]
[1]; [12]
  TRPV3 Efficacy (% IM 4 μM): 18.2 ± 1.0% and 13.1 ± 2.4%
[1]; [13]
  EC50: 9.5 µM and 5.3 µM
[2]
  TRPA1 Efficacy (%ITC 100 μM): 117.0 ± 12.0%
[2]; read-out: TRPA1 Potency EC50, half-maximal increase in [Ca2+]i
  EC50: 0.23 µM
[3]; [12]
  TRPV1 Efficacy (% IM 4 μM): < 10%
[4]; [12]
  TRPV4 Efficacy (% IM 4 μM): <10 <10% and 15.3 ± 1.5%
[4]; [16]
  EC50: 16.1 ± 4.5 µM
[5]
  TRPV2 Efficacy (% IM 4 μM): 53.0 ± 1.4% and 39.9 ± 2.1%
[5]; read-out: IC50 TRPV2, against agonist CBD 2 μM
  IC50: 0.8 µM
[6]; read-out: IC50 TRPM8; against agonist icilin 0.25 μM; cited from earlier work
  IC50: 0.16 µM

## CCCCCCC(C)(C)c1cc(O)c2c(c1)OC(C)(C)[C@@H]1CC=C(C)C[C@@H]21 [6b, Depentyl-α,α-dimethylheptyl-Δ^8-tetrahydrocannabinol]
[7]
  EC50: 4.8 ± 1.1 µM
  IC50: 6 ± 0.9 µM
  TRPA1 Efficacy (%ITC 100 μM): 124.2 ± 4.0%
[8]
  IC50: 39.9 ± 6.9 µM
[9]
  EC50: 16.1 ± 21.6 µM
  IC50: > 100 µM
[9]; [17]
  TRPV4 Efficacy (% IM 4 μM): <10 <10% and 12.1 ± 0.2%
[10]
  EC50: > 100 µM
  IC50: > 100 µM
  TRPV1 Efficacy (% IM 4 μM): 15.3%
[11]
  EC50: 0.25 ± 0.03 µM
[11]; IC50 TRPV2, antagonist/desensitizing, compound added 5 min before agonist CBD 2 μM
  IC50: 45.8 µM and > 50 µM
[11]; [17]
  TRPV2 Efficacy (% IM 4 μM): < 10% and 10.5 ± 0.02%

## CCCCCc1cc(O)c(C/C=C(\C)CCC=C(C)C)c(O)c1 [7a, cannabigerol]
[1]; against agonist thymol 100 μM; read-out: IC50 TRPV3; cited from earlier work
  IC50: > 50 µM
[1]; half-maximal increase in [Ca2+]i; read-out: TRPV3 Potency EC50 (converted); cited from earlier work
  EC50: 1 µM
[1]; [12]
  TRPV3 Efficacy (% IM 4 μM): 18.5 ± 0.7%
[2]
  TRPA1 Efficacy (%ITC 100 μM): 99.9 ± 1.1%
[3]; [14]
  IC50 TRPV1: sub/low micromolar range
[3]; [12]
  TRPV1 Efficacy (% IM 4 μM): 33.8 ± 2.3%
[4]; [12]
  TRPV4 Efficacy (% IM 4 μM): 23.7 ± 1.8%
[4]; read-out: IC50 TRPV4; against agonist GSK1016790A 10 nM; cited from earlier work
  IC50: 1.3 µM
[4]; [16]
  EC50: 5.1 µM
[5]
  TRPV2 Efficacy (% IM 4 μM): 73.6 ± 1.2%

## CCCCCc1cc(O)c2c(c1)OC(C)(CCC=C(C)C)C=C2 (stereo not drawn) [8a, cannabichromene]
[1]; [12]
  TRPV3 Efficacy (% IM 4 μM): 20.2 ± 0.4%
[1]; read-out: IC50 TRPV3; against agonist thymol 100 μM; cited from earlier work
  IC50: > 100 µM
[1]; [13]
  EC50: 1.9 µM
[2]; read-out: IC50 TRPA1 (converted)
  IC50: 0.37 µM
[2]
  TRPA1 Efficacy (%ITC 100 μM): 119.4 ± 3.1%
[3]; against agonist capsaicin 0.1 μM; read-out: IC50 TRPV1; cited from earlier work
  IC50: > 50 µM
[3]; [12]
  TRPV1 Efficacy (% IM 4 μM): < 10%
[4]; against agonist GSK1016790A 10 nM; read-out: IC50 TRPV4; cited from earlier work
  IC50: 9.9 µM
[4]; half-maximal increase in [Ca2+]i; read-out: TRPV4 Potency EC50; cited from earlier work
  EC50: 0.6 µM
[4]; [12]
  TRPV4 Efficacy (% IM 4 μM): 22.9 ± 1.2%
[5]; against agonist CBD 2 μM, read-out: IC50 TRPV2 (converted)
  IC50: 6.5 µM
[5]
  TRPV2 Efficacy (% IM 4 μM): < 10%
[6]; against agonist icilin 0.25 μM; read-out: IC50 TRPM8; cited from earlier work
  IC50: 40.7 µM

## CCCCCc1cc(O)c2c(c1)OC(C)(C)c1ccc(C)cc1-2 [9a, cannabinol]
[2]
  TRPA1 Efficacy (%ITC 100 μM): 83.3 ± 12.0%
[2]; read-out: IC50 TRPA1
  IC50: 0.4 µM
[3]; [12]
  TRPV1 Efficacy (% IM 4 μM): <10 <10%
[3]; [15]
  IC50: > 50 µM

## CCCCCCC(C)(C)c1cc(O)c2c(c1)OC(C)(C)c1ccc(C)cc1-2 [9b, Depentyl-α,α-dimethylheptyl-cannabinol]
[7]
  EC50: 2.1 ± 0.9 µM
  IC50: 3.2 ± 0.6 µM
  TRPA1 Efficacy (%ITC 100 μM): 132.3 ± 7.9%
[8]
  IC50: 0.98 ± 0.12 µM
[10]
  IC50: > 100 µM
  TRPV1 Efficacy (% IM 4 μM): <10 <10%
